Source: patent US11351218B2, “Composition for preventing or treating glioblastoma comprising Platycodon grandiflorum A. De Candolle, Scutellaria baicalensis, Phellodendron amurense Ruprecht or Rubus coreanus” (University-Industry Cooperation Group of Kyung Hee …, priority 2019, dated 2022)
Residues, ends and D or L forms follow the SMILES beside them. *: point of attachment. Cbz = O=C(OCc1ccccc1)*; CH2F = FC*

Tested on: U87MG and U373MG cells
Assay: WST1 cell viability assay, GBM cells
Format: cell-based, human
Conditions: z-VAD-fmk 50 μM with PD 10 μM and 20 μM, 48 hours
Method: FIGS. 6A and 6B show the results that PD induces a decrease in cell viability and vacuole formation. […] Data shown represent the means of quintuplicate measurements which were repeated three times. The results are presented as a percentage of control (means±SD).
Cell cytotoxicity was assessed by WST1 assay. U87 and U373 cells were each seeded in a 96-well plate (5×10^3 cells/well) and treated with different concentrations of platycodin D (PD). Then, cells were incubated with a WST1 reagent (Dogen, Seoul, Korea) for 2 hours before reading the plate. Absorbance was measured at 450 nm using an ELISA reader (Versa Max, Molecular Devices, Sunnyvale, Calif., USA).

Question: With `COC(=O)C[C@H](NC(=O)[C@H](C)NC(=O)[C@@H](NC(=O)OCc1ccccc1)C(C)C)C(=O)CF` [z-VAD-fmk, reference compound] (Cbz-Val-Ala-Asp(OMe)-CH2F) as the compound, how does the “cell viability, co-treatment vs PD-alone” value read?
Answer: The value was “little impact”.
